Measurements as given in PubChem BioAssay (NCI).
Several values for one entry are separate records, joined by “and”; a condition that tells them apart may be missing. Identical values can stand only once.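 Results reflect a 48-hour exposure of cells in 96-well plates to compound at five concentrations. TGI denotes the concentration required for complete inhibition of growth.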

How the values were obtained:
Assay in all cases: NCI anticancer screen, dose series, 48 h
RPMI-8226 leukemia = tested on: RPMI-8226 leukemia
HCT-15 colon = tested on: HCT-15 colon
NCI/ADR-RES ovarian = tested on: NCI/ADR-RES ovarian
CAKI-1 renal = tested on: CAKI-1 renal
HS 578T breast = tested on: HS 578T breast
HCC-2998 colon = tested on: HCC-2998 colon
NCI-H460 lung = tested on: NCI-H460 lung
K-562 leukemia = tested on: K-562 leukemia
NCI-H226 lung = tested on: NCI-H226 lung
MCF7 breast = tested on: MCF7 breast

| Compound | TGI (RPMI-8226 leukemia) [µM] | TGI (HCT-15 colon) | TGI (NCI/ADR-RES ovarian) | TGI (CAKI-1 renal) | TGI (HS 578T breast) | TGI (HCC-2998 colon) | TGI (NCI-H460 lung) [µM] | TGI (K-562 leukemia) [µM] | TGI (NCI-H226 lung) | TGI (MCF7 breast) |
| --- | --- | --- | --- | --- | --- | --- | --- | --- | --- | --- |
| CC/C(Cl)=N\OC(=O)Nc1ccc(C#N)cc1 | 8.66 | 21.7 µM | 18.3 µM | 9.32 µM | 57.8 µM | 30.1 µM | 36.2 | 4.28 | 30.9 µM | 29.6 µM |
| O=[N+]([O-])C1(C2([N+](=O)[O-])CCCC2)CCCC1 | > 100 | > 100 µM | > 100 µM | > 100 µM | > 100 µM | > 100 µM | > 100 | > 100 | > 100 µM | > 100 µM |
| O=C(O)c1ccccc1/C=N\NC1=NCCN1 | > 100 | > 100 µM | > 100 µM | > 100 µM | > 100 µM | > 100 µM | > 100 | > 100 | > 100 µM | > 100 µM |
| C[N+]1(C)CN(c2ccccc2)C2(CCN(CCCC(=O)c3cccs3)CC2)C1=O | > 100 | > 100 µM | > 100 µM | > 100 µM | > 100 µM | > 100 µM | > 100 | > 100 | > 100 µM | > 100 µM |
| O=C(O)CCC1(c2ccccc2)NC(=O)NC1=O (stereo not given) | > 100 | > 100 µM | > 100 µM | > 100 µM | > 100 µM | > 100 µM | > 100 | > 100 | > 100 µM | > 100 µM |
| Nc1ncc(Cc2nc3ccccc3s2)s1 | > 100 | > 100 µM | > 100 µM | > 100 µM | 96.4 µM | > 100 µM | > 100 | > 100 | 92.8 µM | > 100 µM |
| Cc1nc2c(-c3ccccc3)[nH]c(C)c2c(=O)o1 | > 100 | > 100 µM | > 100 µM | > 100 µM | > 100 µM | > 100 µM | > 100 | > 100 | > 100 µM | 37.7 µM |
| CC(Cc1ccc(O)c(O)c1)C(C)Cc1ccc(O)c(O)c1 (stereo not given) | > 63.8 | > 60.8 µM | 64.7 µM | 25.4 µM | 52.5 µM | 38.9 µM | 35 | > 62.7 | 59.8 µM | 41.8 µM |
| O=C1OC(CN2CCN(c3ccccc3)CC2)CN1C(=S)Nc1ccccc1 (stereo not given) | > 100 | > 100 µM | > 100 µM | > 100 µM | > 100 µM | > 100 µM | > 100 | > 100 | > 100 µM | > 100 µM |
| Cn1c(=O)n(CC(Br)CBr)c(=O)n(CC(Br)CBr)c1=O (stereo not given) | 63.8 | > 100 µM | > 100 µM | > 100 µM | > 100 µM | 81.1 µM | > 100 | > 100 | 58.9 µM | > 100 µM |
| COC(=O)C1=C(C)NC(C)=C([N+](=O)[O-])C1c1cccc(NO)c1 (stereo not given) | 12.6 | 9.77 µM | 46.6 µM | > 52.7 µM | 38.6 µM | 16.8 µM | 17.5 | > 27.1 | > 47.3 µM | 27.2 µM |
| C=CCn1c(=O)c(C)cn(/C(=C/C(=O)OCC)C(=O)OCC)c1=O | 39.5 | 13.7 µM | 55.5 µM | 3.65 µM | 76.1 µM | 33.5 µM | > 68.9 | 17.1 | > 54.7 µM | 18.9 µM |
| COC(=O)C1=C(O)C(C(=O)OC)[C@]2(O)[C@H](C(=O)OC)[C@H]1C[C@@H](c1ccc(OC)cc1)[C@H]2C(=O)OC (stereo not given in full) | 57.4 | > 100 µM | > 100 µM | 62.1 µM | > 100 µM | 37.8 µM | 50 | > 100 | > 100 µM | > 100 µM |
| Cc1ccc(S(=O)(=O)N/N=C2\C=C[C@]3(CC2)C(=O)N(C)c2ccccc23)cc1 | > 100 | > 100 µM | > 100 µM | > 100 µM | > 100 µM | > 100 µM | > 100 | > 100 | > 100 µM | > 100 µM |
| Cc1ccc(C2=Nc3c(N)nc(N)nc3NC(c3ccccc3)C2)cc1 (stereo not given) | > 100 | 15.9 µM and 12 µM | 16.1 µM and 18.2 µM | 24.7 µM and 29.5 µM | 33.9 µM and 41.1 µM | 19.3 µM and 18.7 µM | 28.3 | > 100 | 29.3 µM and 36.7 µM | 22.5 µM and 21.5 µM |
| COc1ccc(NC2=NCCO2)c2ccccc12 | > 10 | > 10 µM | > 10 µM | > 10 µM | > 10 µM | > 10 µM | > 10 | > 10 | > 10 µM | > 10 µM |
